21 compounds from ChEMBL document CHEMBL3351661, “Structure-activity relationship studies of antiplasmodial aminomethylthiazoles” (Bioorg Med Chem Lett, 2014) can be followed below.

The subject of one data set is Plasmodium falciparum. In words: microbe, parasite or virus in culture. As to conditions: NF54.
Data set [1] in a line: Aqueous kinetic solubility at pH 7.4 by turbidimetric assay. As to conditions: read-out: Kinetic_solubility. The data set is classed as physicochemical.

Values after ≈ are worked out from the molar mass of the structure shown.

Description for Plasmodium falciparum: Antiplasmodial activity against chloroquine-sensitive Plasmodium falciparum NF54 asexual erythrocyte stages by parasite lactate dehydrogenase assay

Broadly, the IC50 is the concentration needed to halve the response being measured. A low value points to higher potency. With `NCc1csc(NC(=O)c2ccnn2Cc2ccccc2)n1`, in the data set with Plasmodium falciparum, 43.7 µM corresponded to half-maximal inhibition (IC50). For the same compound, the solubility kinetic in data set [1] was greater than 200 µg/mL.

With `CC(C)(C)c1cc(C(=O)Nc2cccc(CN)n2)n(Cc2ccccc2)n1`, the IC50 in the data set on Plasmodium falciparum worked out at 0.125 µM. The solubility kinetic in data set [1] is 40 µg/mL (≈ 110 µM).

Consider `C[C@H]1[C@H](OC(=O)CCC(=O)O)O[C@@H]2O[C@@]3(C)CC[C@H]4[C@H](C)CC[C@@H]1[C@@]24OO3` [ARTESUNATE], for which the IC50 in the data set with Plasmodium falciparum was 0.0052 µM.

`Cc1ccc(-c2cc(C(=O)Nc3nc(CN)cs3)n(Cc3ccccc3)n2)cc1`: inhibition in the data set on Plasmodium falciparum was half-maximal at 2.03 µM (IC50). In data set [1], the solubility kinetic is 40 µg/mL (≈ 99.1 µM).

For `CC(C)(C)c1cc(C(=O)Nc2nc(CN)cs2)n(Cc2ccc(F)cc2F)n1`, the IC50 in the data set with Plasmodium falciparum came out at 4.7 µM.

In the case of `CC(C)(C)c1cc(C(=O)Nc2nc(CN)cs2)n(-c2ccccc2)n1`, half-maximal inhibition in the data set on Plasmodium falciparum (IC50) required 67.5 µM. Further, the solubility kinetic in data set [1] was determined as 160 µg/mL (≈ 450 µM).

For `NCc1csc(NC(=O)c2cccs2)n1`, in the data set with Plasmodium falciparum, the IC50 is 91.7 µM. Moreover, the solubility kinetic in data set [1] is 80 µg/mL (≈ 334 µM).

On to `CC(C)(C)c1cc(C(=O)Nc2ccc(CN)c3ccccc23)n(Cc2ccccc2)n1`, for which, in the data set on Plasmodium falciparum, the IC50 is 7.59 µM.

`NCc1csc(NC(=O)c2ccc(OC(F)(F)F)cc2)n1`: inhibition with Plasmodium falciparum was half-maximal at 43.9 µM (IC50). Also, the solubility kinetic in data set [1] turned out to be 40 µg/mL (≈ 126 µM).

In the data set with Plasmodium falciparum, `NCc1csc(NC(=O)c2cscn2)n1` came in with an IC50 of 149 µM. Besides, the solubility kinetic in data set [1] is 80 µg/mL (≈ 333 µM).

In turn, `NCc1csc(NC(=O)c2cnccn2)n1` returned an IC50 in the data set with Plasmodium falciparum of 173 µM. The solubility kinetic in data set [1] is greater than 200 µg/mL.

`CC(C)(C)c1cc(C(=O)Nc2nc(CN)cs2)n(Cc2ccc(Cl)cc2)n1` registered an IC50 with Plasmodium falciparum of 12.1 µM. Moreover, the solubility kinetic in data set [1] was greater than 200 µg/mL.

In turn, `CC(C)(C)c1ccc(Cn2nc(C(C)(C)C)cc2C(=O)Nc2nc(CN)cs2)cc1` showed an IC50 in the data set on Plasmodium falciparum of 2.58 µM. Further, the solubility kinetic in data set [1] was 10 µg/mL (≈ 23.5 µM).

Take `N#Cc1ccc(C(=O)Nc2nc(CN)cs2)cc1`: in the data set with Plasmodium falciparum, half-maximal inhibition (IC50) was put at 146 µM. Also, the solubility kinetic in data set [1] stood at 20 µg/mL (≈ 77.4 µM).

As for `CC(C)(C)c1cc(C(=O)Nc2ncc(CN)s2)n(Cc2ccccc2)n1`, it took 9.09 µM to reach half-maximal inhibition in the data set on Plasmodium falciparum (IC50). Moreover, the solubility kinetic in data set [1] is 80 µg/mL (≈ 217 µM).

For the compound `CC(C)(C)c1cc(C(=O)Nc2nc(CN)cs2)n(Cc2ccc(Br)cc2)n1`, half-maximal inhibition with Plasmodium falciparum (IC50) required 12.8 µM. Besides, the solubility kinetic in data set [1] is greater than 200 µg/mL.

Take `CC(C)(C)c1cc(C(=O)Nc2nc(CN)cs2)n(Cc2ccccc2)n1`: the IC50 in the data set on Plasmodium falciparum amounted to 0.0203 µM. Besides, the solubility kinetic in data set [1] was greater than 200 µg/mL.

Take `NCc1csc(NC(=O)c2ccc(C(F)(F)F)cc2)n1`: in the data set on Plasmodium falciparum, 40.2 µM corresponded to half-maximal inhibition (IC50). The solubility kinetic in data set [1] came out at 40 µg/mL (≈ 133 µM).

On to `CC(C)(C)c1cc(C(=O)Nc2nc(CN)cs2)n(Cc2ccccc2Cl)n1`, for which the IC50 in the data set on Plasmodium falciparum was found to be 1.84 µM. Further, the solubility kinetic in data set [1] came out at 80 µg/mL (≈ 198 µM).

In the data set on Plasmodium falciparum, `Cc1cc(C(=O)Nc2nc(CN)cs2)n(Cc2ccccc2)n1` came in with an IC50 of 19.8 µM. In addition, in data set [1], the solubility kinetic worked out at 160 µg/mL (≈ 489 µM).

In turn, `NCc1csc(NC(=O)c2ccc(F)cc2)n1` returned an IC50 with Plasmodium falciparum of 123 µM. Further, in data set [1], the solubility kinetic came out at 80 µg/mL (≈ 318 µM).
